# Assays:
# THP-1 cells = test: CCK-8 cell viability, THP-1 cells; format: cell-based; details: THP-1, 6 hours with LPS 5 μg/mL or TNF-α 10 ng/mL; VR23 3 μM, BTZ 6 nM, CFZ 1 nM, DEX 2 μM
# Experimental: (§1) Dunnett's test was performed to assess if there are significant differences in cell viability compared to the non-treatment control group. The values presented are mean±SEM (n=3).
# (§2) The CCK-8 assay was used to count viable cells under the various treatment conditions. Briefly, cells were cultured in 11 columns of a 96-well clustered plate, with 5,000 cells in 100 μL of culture medium per well, excluding one column for a media-only control. The plate was incubated overnight at 37° C. in the humidified conditions, followed by treatment with test compounds diluted in the culture medium (10 μL). Each column was treated with a different condition so that each treatment could have 8 repeats. […] The absorbance was measured using an automatic plate reader (Synergy H4 Hybrid Multi-Mode Microplate Reader, BioTek, Montreal, Canada) at 450 nm wavelength. The cell viability of each treatment sample was determined by using the following equation (%)=(Abstrtmt-Absmedia)/(AbsuT-Absmedia)*100, where Abstrtmt is the absorbance value of cells with the various treatment conditions; Absmedia is the absorbance of the well containing media only; AbsuT is the absorbance of the wells with untreated cells. […]
# SW-982 cells = test: CCK-8 cell viability, SW-982 cells; format: cell-based; details: SW-982, 6 hours with IL-1β 1 ng/mL; VR23 5 μM, HCQ 30 μM
# Experimental: as §1, §2
compound,measurement,setting,value
"O=[N+]([O-])c1ccc(S(=O)(=O)N2CCN(c3ccnc4cc(Cl)ccc34)CC2)c([N+](=O)[O-])c1 [VR23, 7-chloro-4-(4-(2,4-dinitrophenylsulfonyl)piperazin-1-yl)quinoline]",cell viability (CCK-8),THP-1 cells,did not significantly differ from the untreated cells
same,cell viability (CCK-8),SW-982 cells,did not significantly differ from the untreated cells

# — patent US11357774B2, “Use of a quinoline sulfonyl compound for treatment of inflammation, inflammatory disorders, autoimmune disorders and malaria” (priority 2019, dated 2022)
